Patent publication US20210047324A1 (Aptinyx Inc., priority 2018, published 2021)

What was measured:
[1] = target: T1, NMDAR2A (Homo sapiens, UniProt Q12879); assay: NMDAR agonist assay, [3H]MK-801 binding, NMDAR2A expressing HEK cell membranes; assay type: biochemical; conditions: 50 μM glutamate
T1 construct: expressed in transfected cells; host or cells: HEK cells (membrane extract)
Procedure, shortened: (§1)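 Membranes from HEK cells (300 μg protein) preincubated 15 min with 50 μM glutamate plus compound (1×10^−15–1×10^−7 M) or 1 mM glycine, then with 0.3 μCi [3H]MK-801 for 15 min at 25° C. (nonequilibrium); filter-bound DPM, baseline-subtracted, expressed as % of 1 mM glycine; EC50 and % maximum from three-parameter fit.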

[2] = target: T2, NMDAR2D (Homo sapiens, UniProt O15399+Q05586); assay: NMDAR agonist assay, [3H]MK-801 binding, NMDAR2D expressing HEK cell membranes; assay type: biochemical; conditions: 50 μM glutamate; read-out: NMDAR2D B: log EC50 (converted)
T2 construct: expressed in transfected cells; host or cells: HEK cells (membrane extract)
T2 sequence (O15399 28-1336, species assumed, other chains not shown): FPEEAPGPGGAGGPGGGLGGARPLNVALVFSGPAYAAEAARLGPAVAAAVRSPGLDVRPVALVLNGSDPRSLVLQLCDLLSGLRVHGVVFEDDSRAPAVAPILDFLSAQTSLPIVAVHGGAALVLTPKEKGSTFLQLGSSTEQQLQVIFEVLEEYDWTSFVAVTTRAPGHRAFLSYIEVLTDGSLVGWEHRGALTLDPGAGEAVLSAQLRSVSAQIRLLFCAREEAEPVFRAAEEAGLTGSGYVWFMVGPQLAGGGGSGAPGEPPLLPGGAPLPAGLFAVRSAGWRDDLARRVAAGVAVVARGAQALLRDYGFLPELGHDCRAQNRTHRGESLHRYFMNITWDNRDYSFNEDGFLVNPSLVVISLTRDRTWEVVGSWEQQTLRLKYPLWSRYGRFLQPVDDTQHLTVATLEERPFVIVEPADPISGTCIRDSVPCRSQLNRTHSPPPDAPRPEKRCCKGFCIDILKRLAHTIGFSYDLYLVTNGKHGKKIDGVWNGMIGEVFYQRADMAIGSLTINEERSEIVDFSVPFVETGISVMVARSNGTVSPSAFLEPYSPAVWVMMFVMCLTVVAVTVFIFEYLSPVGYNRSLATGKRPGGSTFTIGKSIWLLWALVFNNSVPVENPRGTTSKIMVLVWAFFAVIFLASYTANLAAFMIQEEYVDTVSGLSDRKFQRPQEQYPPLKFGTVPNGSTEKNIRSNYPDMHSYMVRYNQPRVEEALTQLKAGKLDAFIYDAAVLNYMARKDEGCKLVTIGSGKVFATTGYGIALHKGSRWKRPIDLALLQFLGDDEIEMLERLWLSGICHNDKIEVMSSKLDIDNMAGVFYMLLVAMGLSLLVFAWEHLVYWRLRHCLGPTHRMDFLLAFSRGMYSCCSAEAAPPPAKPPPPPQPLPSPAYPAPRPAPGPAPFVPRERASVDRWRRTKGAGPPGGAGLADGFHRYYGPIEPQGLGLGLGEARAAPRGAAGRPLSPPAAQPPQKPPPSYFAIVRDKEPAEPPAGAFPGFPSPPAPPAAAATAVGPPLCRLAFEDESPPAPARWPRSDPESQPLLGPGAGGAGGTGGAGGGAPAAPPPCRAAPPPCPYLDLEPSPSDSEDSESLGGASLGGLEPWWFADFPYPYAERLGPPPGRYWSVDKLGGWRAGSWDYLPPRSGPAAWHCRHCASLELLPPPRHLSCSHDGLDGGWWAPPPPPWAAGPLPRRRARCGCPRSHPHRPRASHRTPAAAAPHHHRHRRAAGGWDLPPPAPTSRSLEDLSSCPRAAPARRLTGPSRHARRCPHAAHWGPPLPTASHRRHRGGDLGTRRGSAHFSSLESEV
Procedure, shortened: as §1

[3] = Microsomal stability (Rat); assay type: in vitro ADME; conditions: after 60 minutes
Description: Microsomal stability of disclosed compounds was investigated. The following table indicates the percent of compound remaining after 60 minutes.

T1 sequence (Q12879 23-1464, species assumed, other chains not shown): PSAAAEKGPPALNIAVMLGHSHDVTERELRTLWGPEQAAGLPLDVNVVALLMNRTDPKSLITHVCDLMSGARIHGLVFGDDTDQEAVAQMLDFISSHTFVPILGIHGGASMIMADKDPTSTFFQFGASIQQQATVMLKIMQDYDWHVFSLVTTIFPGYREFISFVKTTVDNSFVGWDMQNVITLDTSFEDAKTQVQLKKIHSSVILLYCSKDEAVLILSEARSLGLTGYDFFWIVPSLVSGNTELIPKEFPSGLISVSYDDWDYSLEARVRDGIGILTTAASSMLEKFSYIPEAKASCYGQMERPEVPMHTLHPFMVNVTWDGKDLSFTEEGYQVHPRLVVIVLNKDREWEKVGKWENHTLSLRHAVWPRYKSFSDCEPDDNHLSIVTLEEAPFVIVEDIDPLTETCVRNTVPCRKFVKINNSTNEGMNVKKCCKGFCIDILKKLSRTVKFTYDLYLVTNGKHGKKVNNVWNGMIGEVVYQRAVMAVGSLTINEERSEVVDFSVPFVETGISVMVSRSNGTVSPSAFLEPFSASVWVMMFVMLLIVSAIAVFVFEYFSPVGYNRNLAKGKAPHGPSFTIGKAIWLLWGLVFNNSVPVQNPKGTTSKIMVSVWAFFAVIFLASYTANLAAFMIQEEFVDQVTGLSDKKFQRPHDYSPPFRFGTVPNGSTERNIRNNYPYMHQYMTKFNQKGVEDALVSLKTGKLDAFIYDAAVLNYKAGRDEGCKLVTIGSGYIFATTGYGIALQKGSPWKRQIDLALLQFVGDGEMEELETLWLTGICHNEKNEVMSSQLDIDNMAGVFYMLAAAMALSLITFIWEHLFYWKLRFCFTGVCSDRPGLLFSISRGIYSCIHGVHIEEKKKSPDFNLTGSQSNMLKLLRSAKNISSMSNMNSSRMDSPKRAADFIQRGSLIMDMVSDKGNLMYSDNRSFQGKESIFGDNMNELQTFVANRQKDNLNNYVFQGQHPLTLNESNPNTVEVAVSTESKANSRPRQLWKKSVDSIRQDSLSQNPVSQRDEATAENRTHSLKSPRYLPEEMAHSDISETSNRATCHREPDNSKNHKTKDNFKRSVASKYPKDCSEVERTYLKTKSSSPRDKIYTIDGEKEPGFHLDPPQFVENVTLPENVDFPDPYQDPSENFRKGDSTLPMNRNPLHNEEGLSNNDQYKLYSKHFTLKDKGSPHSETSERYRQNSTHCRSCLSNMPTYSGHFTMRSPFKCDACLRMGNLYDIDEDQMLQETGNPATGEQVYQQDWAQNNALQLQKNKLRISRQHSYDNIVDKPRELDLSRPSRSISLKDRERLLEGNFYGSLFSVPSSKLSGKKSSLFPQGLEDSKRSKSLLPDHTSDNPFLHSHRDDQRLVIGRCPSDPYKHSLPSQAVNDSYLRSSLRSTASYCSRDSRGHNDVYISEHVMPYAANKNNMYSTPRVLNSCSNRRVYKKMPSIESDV

EC50 ([1]; read-out: NMDAR2A B: log EC50 (converted)): ≥ 1 nM
Emax ([1]; 0.25 h, relative to 1 mM glycine, read-out: NMDAR2A A: % maximal [3H]MK-801 binding relative to 1 mM glycine): < 100%
EC50 [2]: < 1 nM
Microsomal (Rat): percent of compound remaining [3]: 90%
Structure (SMILES): O=C1NCC=CC[C@]12CCCN2 [GA, (R)-1,7-diazaspiro[4.6]undec-9-en-6-one]
